Source: patent US20260285888A1, “HETEROCYCLIC COMPOUND AND USE THEREOF” (OTSUKA PHARMACEUTICAL CO., LTD., priority 2023, published 2026)

How the values were obtained:
[1] = Study for confirmation of conversion to brexpiprazole in a buffer (stability of the evaluation compounds); assay type: physicochemical; conditions: in buffer, average of duplicate; for Concentration of brexpiprazole formed: 60-minute reaction sample; for Concentration of evaluation compound decreased: decrease in 60-minute vs 0-minute reaction sample
Procedure, shortened: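 Compounds (final 1 μmol/L, from 100 μmol/L working solutions) incubated in buffer at 37° C. for 0 or 60 min, in duplicate, after 3 min pre-incubation of the reaction solution. Reactions stopped with acetonitrile/isopropanol (4:1) containing internal standards; compound and formed brexpiprazole quantified against 0.01–1 μmol/L calibration samples.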

HL-60 cells = experiment: in vitro; assay type: cell-based, human
Procedure, shortened: (§1)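 Cytotoxicity (%) from supernatant LDH activity after ~24 h treatment at 300 μmol/L final, normalised to no-treatment (0%) and lysis buffer (100%). Cells were PMA-differentiated (10 nM, ~72 h) HL-60 in 2% FBS medium; triplicate means.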

in vitro = assay type: cell-based, human; conditions: human, differentiated hl-60 cells, 300 μmol/L, about 24 hours, PMA-differentiated HL-60 cells, LDH; no-treatment 0%, cell lysis buffer 100%; read-out: cytotoxicity (%) Evaluation compound results
Procedure, shortened: as §1

[2] = Dog irritation study (subcutaneous injection site, histopathological examination); assay type: in vivo; conditions: stated as reason for choice as positive control
Method: Male beagle dogs were purchased at the age of 5-7 months from Kitayama Labes Co., Ltd. and used in the experiment after acclimatization. The breeding environment was as follows: feeding: 250 g of solid feed once a day, water intake: unlimited, number of animals per cage: 1, temperature: 21-25° C., humidity: 50-70%, lighting time: 7:00-19:00. The test formulation was subcutaneously administered to dogs anesthetized with 25 mg/kg thiopental sodium using a plastic syringe at a dose of 10 mg/kg per formulation, changing the position on the back. […] The collected tissues were fixed in 10% neutral buffered formalin, and hematoxylin and eosin-stained specimens were prepared for histopathological examination.

[3] = human, differentiated hl-60 cells, 24 h, 300 µM

Concentration of brexpiprazole formed [1]	Concentration of evaluation compound decreased [1]	Compound	cytotoxicity (%) Evaluation compound results (HL-60 cells; 300 μmol/L, about 24 hours, PMA-differentiated HL-60 cells, LDH, no-treatment 0%, cell lysis buffer 100%)	cytotoxicity (%) Evaluation compound results (HL-60 cells; [3])	cytotoxicity at 24 h, 300 µM (in vitro)	irritation when subcutaneously administered to dogs [2]	cytotoxicity compared with the controls (in words) (HL-60 cells; 300 μmol/L, about 24 hours, HL-60 cells)
0 nM	-60 nM	COCCOCCOP(=O)([O-])OC[N+]1(CCCCOc2ccc3ccc(=O)[nH]c3c2)CCN(c2cccc3sccc23)CC1 [EX 7, (4-(benzo[b]thiophen-4-yl)-1-(4-((2-oxo-1,2-dihydroquinolin-7-yl)oxy)butyl)piperazin-1-ium-1-yl)methyl (2-(2-methoxyethoxy)ethyl)phosphate]		−4%			
0 nM	170 nM	CCOC(=O)[C@H](C)NP(=O)([O-])OC[N+]1(CCCCOc2ccc3ccc(=O)[nH]c3c2)CCN(c2cccc3sccc23)CC1 [EX 156, (4-(benzo[b]thiophen-4-yl)-1-(4-((2-oxo-1,2-dihydroquinolin-7-yl)oxy)butyl)piperazin-1-ium-1-yl)methyl (S)-(1-ethoxy-1-oxopropan-2-yl)phosphoramidate]			-9%		
0 nM	70 nM	C[C@H](NP(=O)([O-])OC[N+]1(CCCCOc2ccc3ccc(=O)[nH]c3c2)CCN(c2cccc3sccc23)CC1)C(N)=O [EX 158, (4-(benzo[b]thiophen-4-yl)-1-(4-((2-oxo-1,2-dihydroquinolin-7-yl)oxy)butyl)piperazin-1-ium-1-yl)methyl (S)-(1-amino-1-oxopropan-2-yl)phosphoramidate]			-3%		
0 nM	60 nM	CC(C)OC(=O)[C@H](C)NP(=O)([O-])OC[N+]1(CCCCOc2ccc3ccc(=O)[nH]c3c2)CCN(c2cccc3sccc23)CC1 [EX 159, (4-(benzo[b]thiophen-4-yl)-1-(4-((2-oxo-1,2-dihydroquinolin-7-yl)oxy)butyl)piperazin-1-ium-1-yl)methyl (S)-(1-isopropoxy-1-oxopropan-2-yl)phosphoramidate]			-1%		
0 nM	-10 nM	O=C(OCOP(=O)([O-])OC[N+]1(CCCCOc2ccc3ccc(=O)[nH]c3c2)CCN(c2cccc3sccc23)CC1)N1CCOCC1 [EX 160, (4-(benzo[b]thiophen-4-yl)-1-(4-((2-oxo-1,2-dihydroquinolin-7-yl)oxy)butyl)piperazin-1-ium-1-yl)methyl (((morpholine-4-carbonyl)oxy)methyl) phosphate]			9%		
		CCCCCC(=O)OCn1c(=O)ccc2ccc(OCCCCN3CCN(c4cccc5sccc45)CC3)cc21 [Reference Example 3 compound, (7-(4-(4-(benzo[b]thiophen-4-yl)piperazin-1-yl)butoxy)-2-oxoquinolin-1(2H)-yl)methyl hexanoate]				showed irritation	
		O=C(OC[N+]1(CCCCOc2ccc3ccc(=O)[nH]c3c2)CCN(c2cccc3sccc23)CC1)N1CCCCC1 [Reference Example 4 compound, reference compound]					stronger cytotoxicity than that of the Reference Example 3 compound
		(4-(benzo[b]thiophen-4-yl)-1-(4-(2-oxo-1,2-dihydroquinolin-7-yl)oxy)butyl)piperazin-1-ium-1-yl)methyl (5-bromopentyl) phosphate [EX 114]		14%			
0 nM	0 nM	(4-(benzo[b]thiophen-4-yl)-1-((4-((2-oxo-1,2-dihydroquinolin-7-yl)oxy)butyl)piperazin-1-ium-1-yl)methyl hydrogen phosphate [EX 1]		−7%			

Compound	Concentration of brexpiprazole formed [1]	Concentration of evaluation compound decreased [1]	cytotoxicity (%) Evaluation compound results (HL-60 cells; 300 μmol/L, about 24 hours, PMA-differentiated HL-60 cells, LDH, no-treatment 0%, cell lysis buffer 100%)	cytotoxicity (%) Evaluation compound results (HL-60 cells; [3])	cytotoxicity at 24 h, 300 µM (in vitro)	irritation when subcutaneously administered to dogs [2]	cytotoxicity compared with the controls (in words) (HL-60 cells; 300 μmol/L, about 24 hours, HL-60 cells)
CCOP(=O)([O-])OC[N+]1(CCCCOc2ccc3ccc(=O)[nH]c3c2)CCN(c2cccc3sccc23)CC1 [EX 3, (4-(benzo[b]thiophen-4-yl)-1-(4-((2-oxo-1,2-dihydroquinolin-7-yl)oxy)butyl)piperazin-1-ium-1-yl)methyl ethyl phosphate]	0 nM	10 nM	−7%				
CC(C)(C)OC(=O)CNP(=O)([O-])OC[N+]1(CCCCOc2ccc3ccc(=O)[nH]c3c2)CCN(c2cccc3sccc23)CC1 [EX 155, (4-(benzo[b]thiophen-4-yl)-1-(4-((2-oxo-1,2-dihydroquinolin-7-yl)oxy)butyl)piperazin-1-ium-1-yl)methyl (2-(tert-butoxy)-2-oxoethyl)phosphoramidate]	0 nM	160 nM			-3%		
C[C@H](NP(=O)([O-])OC[N+]1(CCCCOc2ccc3ccc(=O)[nH]c3c2)CCN(c2cccc3sccc23)CC1)C(=O)OC(C)(C)C [EX 157, (4-(benzo[b]thiophen-4-yl)-1-(4-((2-oxo-1,2-dihydroquinolin-7-yl)oxy)butyl)piperazin-1-ium-1-yl)methyl (S)-(1-(tert-butoxy)-1-oxopropan-2-yl)phosphoramidate]	0 nM	80 nM			-4%		
(4-(benzo[b]thiophen-4-yl)-1-(4-((2-oxo-1,2-dihydroquinolin-7-yl)oxy)butyl)piperazin-1-ium-1-yl)methyl(2-(2-butoxyethoxy)ethyl) phosphate [EX 99]	0 nM	0 nM		−6%			
